Experimental data reported in ChEMBL document CHEMBL1221225, “A small molecule that directs differentiation of human ESCs into the pancreatic lineage” (Nat Chem Biol, 2009).
Calls of active or inactive are those of the source. The calls are words filed in the database; no cut-off is given here.

What was measured:
Homo sapiens [1] = species on record: Homo sapiens; experiment: Induction of C-peptide expression in human HUES8 insulin-producing cells at 300 nM after 4 days by immunocytochemistry relative to control; assay type: functional
AV3 [2] = experiment: Induction of mouse AV3 cell differentiation into pancreatic lineage assessed as increase in ptf1a mRNA expression at 300 nM after 6 days by RT-PCR analysis pretreated with 1000 ng/ml recombinant mouse Nodal for 5 days; assay type: functional, cell-based
[3] = Induction of human HUES8 cell differentiation into pancreatic progenitor cell assessed as NKX6.1 expression in cells pregrown in medium containing Wnt, activin, FGF10, KAAD-cyclopamine and retinoic acid at 300 nM after 4 days by immunocytochemistry relative to control; assay type: functional
AV3 [4] = experiment: Induction of mouse AV3 cell differentiation into pancreatic lineage assessed as increase in Pdx1 mRNA expression at 300 nM after 6 days by RT-PCR analysis pretreated with 1000 ng/ml recombinant mouse Nodal for 5 days; assay type: functional, cell-based
[5] = Effect on glucagon expression in human HUES8 insulin-producing cells at 300 nM after 4 days by immunocytochemistry (reference value: 75.2 +/- 9.1%); assay type: functional
Mus musculus [6] = species on record: Mus musculus; experiment: Induction of MYOD expression in CD1 nude mouse mesoderm at 300 nM after 4 days by fluorescent confocal microscopy; assay type: functional
HUES8 [7] = experiment: Induction of human HUES8 cell differentiation into pancreatic progenitor cell assessed as increase in NKX6.1 mRNA expression at 300 nM after 4 days by RT-PCR analysis cells pregrown in medium containing Wnt, activin, FGF10, KAAD-cyclopamine and retinoic acid; assay type: functional, cell-based
Heart [8] = experiment: Induction of ISL1 expression in CD1 nude mouse heart at 300 nM after 4 days by fluorescent confocal microscopy; assay type: functional, tissue-based
HUES8 [9] = experiment: Induction of human HUES8 cell differentiation into pancreatic progenitor cell assessed as increase in SOX9 mRNA expression at 300 nM after 4 days by RT-PCR analysis cells pregrown in medium containing Wnt, activin, FGF10, KAAD-cyclopamine and retinoic acid; assay type: functional, cell-based
[10] = Induction of human HUES8 cell differentiation into pancreatic progenitor cell assessed as PTF1A expression in cells pregrown in medium containing Wnt, activin, FGF10, KAAD-cyclopamine and retinoic acid at 300 nM after 4 days by immunocytochemistry relative to control; assay type: functional
[11] = Induction of human HUES8 differentiation into pancreatic lineage assessed as increase in amylase/CPA double-positive exocrine cells at 300 nM after 4 days by RT-PCR (Rvb (DMSO) = 0.2+/-0.1%); assay type: functional
AV3 [12] = experiment: Induction of mouse AV3 cell differentiation into pancreatic lineage assessed as increase in Hnf6 mRNA expression at 300 nM after 6 days by RT-PCR analysis pretreated with 1000 ng/ml recombinant mouse Nodal for 5 days; assay type: functional, cell-based
Intestine [13] = experiment: Induction of FABP2 expression in CD1 nude mouse intestine at 300 nM after 4 days by fluorescent confocal microscopy; assay type: functional, tissue-based
Mus musculus [14] = species on record: Mus musculus; experiment: Induction of SOX1 expression in CD1 nude mouse ectoderm at 300 nM after 4 days by fluorescent confocal microscopy; assay type: functional, tissue-based
Liver = experiment: Induction of AFP expression in CD1 nude mouse liver at 300 nM after 4 days by fluorescent confocal microscopy; assay type: functional, tissue-based
Intestine [15] = experiment: Induction of CES2 expression in CD1 nude mouse intestine at 300 nM after 4 days by fluorescent confocal microscopy; assay type: functional, tissue-based
Heart [16] = experiment: Induction of Troponin T expression in CD1 nude mouse heart at 300 nM after 4 days by fluorescent confocal microscopy; assay type: functional, tissue-based
Intestine [17] = experiment: Induction of CDX2 expression in CD1 nude mouse intestine at 300 nM after 4 days by fluorescent confocal microscopy; assay type: functional, tissue-based
[18] = Induction of insulin production in differentiated human HUES8 cells at 300 nM after 4 days by immunocytochemistry (reference value: 0.2+/-0.1%); assay type: functional
[19] = Induction of insulin production in differentiated human HUES8 cells at 300 nM after 4 days by immunocytochemistry (reference value: 0%); assay type: functional
[20] = Induction of human HUES9 cell differentiation into pancreatic lineage assessed as increase in Pdx1-expression in cells pregrown with medium containing Wnt, activin, FGF10, KAAD-cyclopamine and retinoic acid after 1 day by Opera high content screening system; assay type: functional, cell-based; conditions: HUES9, 24 h
Lung = experiment: Induction of SOX2 expression in CD1 nude mouse lung at 300 nM after 4 days by fluorescent confocal microscopy; assay type: functional, tissue-based
HUES8 [21] = experiment: Induction of human HUES8 cell differentiation into pancreatic progenitor cell assessed as increase in HB9 mRNA expression at 300 nM after 4 days by RT-PCR analysis pregrown in medium containing Wnt, activin, FGF10, KAAD-cyclopamine and retinoic acid; assay type: functional, cell-based
Homo sapiens [22] = species on record: Homo sapiens; experiment: Effect on human HUES8 differentiation into neuronal lineage assessed as c-peptide/betaIIItubulin double positive cells at 300 nM after 4 days by immunocytochemistry; assay type: functional, cell-based
AV3 [23] = experiment: Induction of mouse AV3 cell differentiation into pancreatic lineage assessed as increase in Foxa2 mRNA expression at 300 nM after 6 days by RT-PCR analysis pretreated with 1000 ng/ml recombinant mouse Nodal for 5 days; assay type: functional, cell-based
Stomach = experiment: Induction of BARX1 expression in CD1 nude mouse stomach at 300 nM after 4 days by fluorescent confocal microscopy; assay type: functional, tissue-based
[24] = Induction of human HUES8 differentiation into pancreatic lineage assessed as increase in amylase/CPA double-positive exocrine cells at 300 nM after 4 days by RT-PCR (reference value: 1.6+/-0.2%); assay type: functional
[25] = Induction of human HUES9 cell differentiation into pancreatic lineage assessed as increase in Pdx1-expression in cells pregrown with medium containing Wnt, activin, FGF10, KAAD-cyclopamine and retinoic acid at 1 uM after 4 days by Opera high content screening system; assay type: functional
[26] = Induction of human HUES8 cell differentiation into pancreatic progenitor cells assessed as increase in Pdx1-expression in cells pregrown with medium containing Wnt, activin, FGF10, KAAD-cyclopamine and retinoic acid at 300 nM after 4 days by Opera high content screening system relative to control; assay type: functional
[27] = Induction of human GTE cells differentiation into pancreatic lineage assessed as increase in Pdx1-expressing cells at 300 nM after 4 days by immunocytochemistry pregrown in medium with FGF10 and KAAD-cyclopamine (Rvb (DMSO) = 2.8+/-0.6%); assay type: functional
Homo sapiens [28] = species on record: Homo sapiens; experiment: Effect on human HUES8 differentiation into neuronal lineage assessed as c-peptide/GFAP double positive cells at 300 nM after 4 days by immunocytochemistry; assay type: functional
HUES8 [29] = experiment: Induction of human HUES8 cell differentiation into pancreatic progenitor cell assessed as increase in HNF6 mRNA expression at 300 nM after 4 days by RT-PCR analysis cells pregrown in medium containing Wnt, activin, FGF10, KAAD-cyclopamine and retinoic acid; assay type: functional, cell-based
Homo sapiens [30] = species on record: Homo sapiens; experiment: Induction of human HUES8 differentiation into definitive endoderm assessed as expression of SOX17 at 300 nM after 3 days by immunocytochemistry in presence of Wnt3a and activin A; assay type: functional

Q: Which results are given for `CC(C)[C@H]1C(=O)N[C@H](CO)Cc2c[nH]c3cccc(c23)N1C` [INDOLACTUM]?
A: Activity (Homo sapiens [1]): Active; Activity (AV3 [2]): Active; Activity [3]: 83.5%; Activity (AV3 [4]): Active; Activity [5]: 19.5%; Activity (Mus musculus [6]): inactive; Activity (HUES8 [7]): Active; Activity (Heart [8]): inactive; Activity (HUES8 [9]): Active; Activity [10]: 90.1%; Activity [11]: 22.7%; Activity (AV3 [12]): Active; Activity (Intestine [13]): inactive; Activity (Mus musculus [14]): inactive; Activity (Liver): inactive; Activity (Intestine [15]): inactive; Activity (Heart [16]): inactive; Activity (Intestine [17]): inactive; Activity [18]: 0.5%; Activity [19]: 0.5%; EC50 [20]: 142 nM; Activity (Lung): inactive; Activity (HUES8 [21]): Active; Activity (Homo sapiens [22]): inactive; Activity (AV3 [23]): Active; Activity (Stomach): inactive; Activity [24]: 22.7%; Activity [25]: 10.9%; Activity [26]: 26.9%; Activity [27]: 21.5%; Activity (Homo sapiens [28]): inactive; Activity (HUES8 [29]): Active; Activity (Homo sapiens [30]): inactive
